Source: patent US20150051246A1 (priority 2013, published 2015)

What was measured:
[1] = system: 60 to 80 years old subjects (Impaired Elderly and Healthy Elderly); experiment: Verbal Learning Task (VLT) in 60 to 80 years old subjects, interim analysis; type: in vivo, human
Method: The study is conducted according to a double-blind, placebo-controlled, four-period cross-over design. Forty healthy subjects, both male and female within an age range of 60 to 80 years are planned to be included in the study in two groups: 1) 20 subjects with a memory performance between 1-2 Standard Deviation below the average for their age, gender, and educated level (Impaired Elderly) and 2) 20 subjects with age (±3 years), gender, and educational level matched (in order to speed up the study matching was stopped after the interim analysis) with an average memory performance between 0.5 Standard Deviation below and 0.5 Standard Deviation above from normative values (Healthy Elderly). Classification in terms of impaired or healthy elderly will be determined by a one-off testing of memory performance using the Rey Verbal Learning Task (Rey A; L'examen psychologique dans les cas d'encephalopathy traumatique 1958 Paris; Presses Universitaire de France; or Van der Elst et al; J Int Neuropsychol Soc 2005, 11 (3), pp 290-302) according to fully standardized procedures as applied in The Maastricht Aging Study (Jolles et al; Maastricht Aging Study; determinants of cognitive aging; Maastricht, The Netherlands, Neuropsych Publishers 1995). Normative data for each individual subject will be derived also from the Maastricht Aging Study using the regression formula as described by Van der Elst et al (Van der Elst et al; J Int Neuropsychol Soc 2005, 11 (3), pp 290-302).
All subjects within their corresponding groups (either Healthy Elderly n=20 or Impaired Elderly n=20) will be randomized in a double blind fashion to 1 of 4 treatment sequences, each sequence consisting of the following periods: A) Placebo+placebo; B) Roflumilast 100 mcg+placebo; C) Roflumilast […]+placebo and D) Roflumilast 1000 mcg (500+500 mcg) according to a computer-generated allocation schedule in a cross-over design. Between each of the four treatment sequences there will be a 12 days washout period.
Verbal learning task (VLT) The Rey VLT as modified by Riedel and colleagues (Riedel, Klaasen et al, Psychopharmacology (Berlin) 1999 Vol 141(4) pp 362-369) is used. This modified VLT maximizes the possibility of measuring enhancement rather than only impairment, by means of prolonging the list. The test consists of a list of 30 monosyllabic words (18 nouns and 12 adjectives). The words are shown on a computer screen for 1 second. Three trials with the same item sequence are presented. Each trial ends with a free recall of the words (immediate recall). Forty-five minutes after the first exposure, the subject is asked to recall as many words as possible (delayed recall). […] The words are shown on a computer screen for 2 seconds and subjects are asked to rate whether they were presented in the learning trial by a “yes/no” response. The inter-word interval is 2 seconds. 24 Hours after the immediate recall, subjects will return to the lab for a second delayed recall and recognition. […] EEG will be recorded during the immediate recall and the first recognition test on the test day. […]
An interim analysis has been performed based on the data of 9 subjects of the Impaired Elderly group and 4 subjects of the Healthy Elderly group. For this purpose, cognitive battery test scores (VLT, SMT, Stroop task and BL-VAS) and concentrations of roflumilast and roflumilast-N-oxide in plasma have been analysed and summarized by dose over each scheduled sampling time using descriptive statistics. […]

[2] = type: in vivo, human; conditions: human, in vivo
Excerpt: An interim analysis has been performed based on the data of 9 subjects of the Impaired Elderly group and 4 subjects of the Healthy Elderly group. For this purpose, cognitive battery test scores (VLT, SMT, Stroop task and BL-VAS) and concentrations of roflumilast and roflumilast-N-oxide in plasma have been analysed and summarized by dose over each scheduled sampling time using descriptive statistics.

healthy adults [3] = experiment: EEG Event Related Potentials (P300, N400, P600) during VLT in healthy adults; type: in vivo, human; conditions: for ERP P600 amplitude (in words): 100 mcg, during VLT
Method: An electroencephalogram (EEG) cap was used to place a set of 32 EEG electrodes according to the international 10-20 system on the subjects. Event Related Potentials (ERPs) were extracted by averaging the responses within an epoch of 100 ms before and 1000 ms after stimulus onset covering P300, N400, and P600. Separate averages were made for correct and incorrect responses within a task and for different trial types. EEG measurements were done simultaneously with VLT testing. ERPs were calculated from the words that were called during immediate recall (encoding), and from the words that were recognized and from those that were not during the recognition condition at 45 minutes. The ERP components of P300, N400, and P600 were compared to examine whether the initial stimulus processing during the learning trials differs from word to word. Finally, ERPs to the old and new items during the recognition task were measured.
(§1) Statistical Data Analyses Human data was analyzed using IBM SPSS Statistics version 20. General Linear Models for repeated measures were applied with the placebo condition included as contrast. Statistical outcomes for Tests of Within-Subjects Effects and Tests of Within-Subjects Contrasts were regarded for immediate and delayed free recall scores and for the summed immediate recall score (i.e. immediate 1+immediate 2+immediate 3). The factor Treatment (4 levels; placebo, roflumilast 100 mcg, roflumilast 300 mcg and roflumilast 1000 mcg) was included as a within subjects factor. For the analysis of the EEG data, the factor Channel (5 levels; Fz, FCz, Cz, CPz, and Pz) was included as a second within subjects factor. Peak and latency values of three memory related ERP's were analysed; i.e. P300, N400 and P600. In case of significant findings (p<0.05) post-hoc t-tests were performed to reveal which of the five midline electrodes contributed to the effect

healthy adults [4] = experiment: Verbal Learning Task (VLT) in healthy adults, 18 to 35 years; type: in vivo, human
Excerpt: The study utilized Verbal Learning Task (VLT) to analyze the increased number of words remembered following roflumilast administration. The VLT consisted of displaying 30 monosyllable words on a computer screen for a period of 60 seconds. Immediately after the presentation of the words on the computer screen subjects were asked to report as many words as they could recall by memory. This process (presentation and recall) was repeated further two times (VLT, immediate recall, 3 trials). In addition, 45 min and 24 h after the last presentation, subjects were again asked to report as many words as they could recall by memory (VLT, delayed recall 45 min and 24 h). The set of three recall trials was conducted 60 minutes following administration of the roflumilast therapy
as §1

## O=C(Nc1c(Cl)cncc1Cl)c1ccc(OC(F)F)c(OCC2CC2)c1 [roflumilast, N-(3,5-dichloropyridin-4-yl)-3-cyclopropylmethoxy-4-difluoromethoxybenzamide]
[1]; 100 mcg
  increase in number of correct words, 45 min delayed recall, compared to placebo: 1.7 words
[1]; 100 mcg, 3rd trial, interim data elderly study
  placebo-corrected fold-improvement: 1.16
[1]; 100 mcg, after 3rd trial
  increase in number of correct words immediately recalled, compared to placebo: 1.5 words
[1]; 100 mcg, elderly subjects
  number of words on the 3rd trial: 10.28 words
[1]; 1000 mcg
  increase in number of correct words, 45 min delayed recall, compared to placebo: 1.6 words
[2]
  exposure: consistent with those previously reported
Healthy adults [3]
  ERP P600 amplitude (in words): strongest increase of amplitude
Healthy adults [3]; listed as Roflumilast
  ERP P600 amplitude (in words): increased amplitude
Healthy adults [3]; 300 mcg and 1000 mcg, FIG. 3
  ERP P600 (in words): some effect
Healthy adults [4]; 100 mcg
  number of correct words recalled after 3rd trial (in words): significant increase in the number of correct words recalled
Healthy adults [4]; 100 mcg, 3rd trial, healthy volunteer study
  placebo-corrected fold-improvement: 1.12
Healthy adults [4]; 100 mcg, young volunteers
  number of words on the 3rd trial: 23.7 words
Healthy adults [4]; 300 mcg and 1000 mcg, FIG. 2
  number of correct words recalled (in words): some effect
Healthy adults [4]; single oral dose 100 mcg, after the third trial
  improvement in number of correct words recalled, average: 2.5 words
